Experimental data as given in ChEMBL document CHEMBL6074686 (Eur J Med Chem, 2025).
Calls of active or inactive are those of the source. The rule behind the calls is not given here.

Columns and labels:
SK-OV-3 [1] = assay: Inhibition of colony formation in human SK-OV-3 cells at 2.5 nM incubated for 12 days by crystal violet staining based assay relative to control; type: functional; conditions: SK-OV-3, 288 h, time 12 day
MCF7 [2] = assay: Inhibition of colony formation in human MCF7 cells at 25 nM incubated for 72 hrs by crystal violet staining based assay relative to control; type: functional
SK-OV-3 [3] = assay: Induction of cell cycle arrest in human SK-OV-3 cells assessed as increase in G2/M phase cells at 5 nM incubated for 24 hrs PI staining based flow cytometric analysis (reference value: 24.6 +/- 2.0%); type: functional
SK-OV-3 [4] = assay: Induction of cell cycle arrest in human SK-OV-3 cells assessed as increase in G2/M phase cells at 10 nM incubated for 24 hrs PI staining based flow cytometric analysis (reference value: 24.6 +/- 2.0%); type: functional
A549 = assay: Induction of cell cycle arrest in human A549 cells assessed as accumulation of cells at G2/M phase at 40 nM incubated for 24 hrs by PI staining based flow cytometric analysis relative to control; type: functional
SK-OV-3 [5] = assay: Induction of apoptosis in human SK-OV-3 cells assessed as increase in apoptotic cells incubated for 48 hrs by IncuCyte live-cell imaging analysis; type: functional, cell-based; conditions: dose 2.5-40 nM
SK-OV-3 [6] = assay: Induction of apoptosis in human SK-OV-3 cells assessed as Bax expression at 25 to 50 nM incubated for 24 hrs by Western blotting analysis; type: functional, cell-based; conditions: dose 25-50 nM
SK-OV-3 [7] = assay: Induction of apoptosis in human SK-OV-3 cells assessed as upregulation of Bax expression at 100 nM incubated for 24 hrs by Western blotting analysis; type: functional, cell-based
SK-OV-3 [8] = assay: Inhibition of cell migration in human SK-OV-3 cells assessed as reduction in wound closure at 3.125 nM incubated for 24 hrs by wound healing assay (reference value: 21.8 +/- 7.6%); type: functional; conditions: SK-OV-3, 24 h, values are per cent of control
MCF7 [9] = assay: Induction of apoptosis in human MCF7 cells assessed as upregulation of Bax expression at 100 nM incubated for 24 hrs by Western blotting analysis; type: functional, cell-based
MCF7 [10] = assay: Induction of apoptosis in human MCF7 cells assessed as downregulation of Bcl-2 expression incubated for 24 hrs by Western blotting analysis; type: functional, cell-based
Tubulin (Homo sapiens) = Tubulin (Homo sapiens) (UniProt P68371+Q9H4B7+P0DPH7+P68366+Q13509+Q71U36+P04350+Q3ZCM7+P07437+P68363+Q9BQE3+Q6PEY2+Q13885+Q9BVA1+Q9BUF5); assay: Inhibition of tubulin polymerization in human SK-OV-3 cells assessed as destruction of microtubule network at 20 nM incubated for 18 hrs by Alexa Fluor 488 staining based confocal immunofluorescent microscopic analysis; type: cell-based
SK-OV-3 [11] = assay: Inhibition of cell migration in human SK-OV-3 cells assessed as reduction in wound closure at 50 nM incubated for 24 hrs by wound healing assay (reference value: 21.8 +/- 7.6%); type: functional; conditions: SK-OV-3, 24 h, values are per cent of control
MCF7 [12] = assay: Inhibition of cell migration in human MCF7 cells assessed as wound closure at 2.5 nM incubated for 24 hrs by wound healing assay (reference value: 44.5 +/- 8.8%); type: functional; design: scale not given: the % may be the effect or the level left
MCF7 [13] = assay: Inhibition of cell migration in human MCF7 cells assessed as wound closure ratio at 2.5 nM incubated for 24 hrs by wound healing assay (reference value: 100%); type: functional; design: scale not given: the % may be the effect or the level left
MCF7 [14] = assay: Inhibition of cell migration in human MCF7 cells assessed as wound closure ratio at 20 nM incubated for 24 hrs by wound healing assay (reference value: 100%); type: functional; design: scale not given: the % may be the effect or the level left
SK-OV-3 [15] = assay: Inhibition of cell migration in human SK-OV-3 cells assessed as area of migrated cells at 5 nM incubated for 24 hrs by crystal violet staining based inverted microscopic analysis (reference value: 30.1 +/- 1.3 mm^3); type: functional
SK-OV-3 [16] = assay: Inhibition of cell migration in human SK-OV-3 cells assessed as ratio of migrated cells at 20 nM incubated for 24 hrs by Transwell assay (reference value: 100 %); type: functional; design: scale not given: the % may be the effect or the level left
MCF7 [17] = assay: Inhibition of cell migration in human MCF7 cells assessed as area of migrated cells at 3.125 nM incubated for 24 hrs by crystal violet staining based inverted microscopic analysis (reference value: 18.5 +/- 0.3 mm^3); type: functional
MCF7 [18] = assay: Inhibition of cell migration in human MCF7 cells assessed as area of migrated cells at 12.5 nM incubated for 24 hrs by crystal violet staining based inverted microscopic analysis (reference value: 18.5 +/- 0.3 mm^3); type: functional
MCF7 [19] = assay: Inhibition of cell migration in human MCF7 cells assessed as area of migrated cells at 25 nM incubated for 24 hrs by crystal violet staining based inverted microscopic analysis (reference value: 18.5 +/- 0.3 mm^3); type: functional
MCF7 [20] = assay: Inhibition of cell migration in human MCF7 cells assessed as ratio of migrated cells at 6.25 nM incubated for 24 hrs by crystal violet staining based inverted microscopic analysis (reference value: 100%); type: functional; design: scale not given: the % may be the effect or the level left
MCF7 [21] = assay: Inhibition of cell migration in human MCF7 cells assessed as ratio of migrated cells at 50 nM incubated for 24 hrs by crystal violet staining based inverted microscopic analysis (reference value: 100%); type: functional; design: scale not given: the % may be the effect or the level left
[22] = Toxicity in female BALB/c nude mouse xenografted with human SK-OV-3 cells assessed as drug tolerance by measuring body weight loss at 30 mg/kg, administered via tail vein for 5 days and measured daily; type: organism-based; conditions: in vivo, iv, 120 h, time 5 day
[23] = Toxicity in female BALB/c nude mouse xenografted with human SK-OV-3 cells assessed as drug tolerance reduction in food intake at 30 mg/kg, administered via tail vein for 5 days and measured daily; type: organism-based; conditions: in vivo, iv, 120 h, time 5 day
[24] = Toxicity in female BALB/c nude mouse xenografted with human SK-OV-3 cells assessed as drug tolerance by measuring lethargy at 30 mg/kg, administered via tail vein for 5 days and measured daily; type: organism-based; conditions: in vivo, iv, 120 h, time 5 day
SK-OV-3 [25] = assay: Antitumor activity against human SK-OV-3 cells xenografted xenografted in female BALB/c nude mouse assessed as upregulation of cleaved PARP expression level in tumor at 5 to 10 mg/kg, […] via tail vein once every 2 to 3 days by immunohistochemistry analysis; type: functional, organism-based; conditions: dose 5-10 mg/kg, time 2-3 day
[26] = Toxicity in female BALB/c nude mouse xenografted with human SK-OV-3 cells assessed as pathological changes in heart at 5 to 10 mg/kg, […] via tail vein once every 2 to 3 days by H and E staining based analysis; type: organism-based; conditions: in vivo, dose lower 5 mg/kg, time lower 2 day, dose upper 10 mg/kg, time upper 3 day
[27] = Toxicity in female BALB/c nude mouse xenografted with human SK-OV-3 cells assessed as pathological changes in liver at 5 to 10 mg/kg, […] via tail vein once every 2 to 3 days by H and E staining based analysis; type: organism-based; conditions: in vivo, dose lower 5 mg/kg, time lower 2 day, dose upper 10 mg/kg, time upper 3 day
[28] = Toxicity in female BALB/c nude mouse xenografted with human SK-OV-3 cells assessed as pathological changes in spleen at 5 to 10 mg/kg, […] via tail vein once every 2 to 3 days by H and E staining based analysis; type: organism-based; conditions: in vivo, dose lower 5 mg/kg, time lower 2 day, dose upper 10 mg/kg, time upper 3 day
[29] = Toxicity in female BALB/c nude mouse xenografted with human SK-OV-3 cells assessed as pathological changes in kidney at 5 to 10 mg/kg, […] via tail vein once every 2 to 3 days by H and E staining based analysis; type: organism-based; conditions: in vivo, dose lower 5 mg/kg, time lower 2 day, dose upper 10 mg/kg, time upper 3 day

Compound: CNc1nc(N2CCCc3cc(OC)ccc32)c2cc(F)ccc2n1
- inhibition at 0.0025 µM (SK-OV-3 [1]): 56.2%
- inhibition at 0.025 µM (MCF7 [2]): 32.8%
- Activity (SK-OV-3 [3]): 29.6%
- Activity (SK-OV-3 [4]): 64.5%
- Activity (A549): 88.8%
- Activity (SK-OV-3 [5]): Dose-dependent-effect
- Activity (SK-OV-3 [6]): inactive
- Activity (SK-OV-3 [7]): Active
- response, % of control at 0.003125 µM (SK-OV-3 [8]): 22.8%
- Activity (MCF7 [9]): Active
- Activity (MCF7 [10]): Active
- inhibition (Tubulin (Homo sapiens)): Active
- response, % of control at 0.05 µM (SK-OV-3 [11]): 4.9%
- Activity (MCF7 [12]): 44%
- Activity (MCF7 [13]): 98.8%
- Activity (MCF7 [14]): 72.4%
- Activity (SK-OV-3 [15]): 14.7 mm3
- Activity (SK-OV-3 [16]): 11.9%
- Activity (MCF7 [17]): 17.5 mm3
- Activity (MCF7 [18]): 11.2 mm3
- Activity (MCF7 [19]): 2.4 mm3
- Activity (MCF7 [20]): 88.6%
- Activity (MCF7 [21]): 11.7%
- Activity [22]: Toxic
- Activity [23]: Toxic
- Activity [24]: Toxic
- Activity (SK-OV-3 [25]): Active
- Activity [26]: Non-toxic
- Activity [27]: Non-toxic
- Activity [28]: Non-toxic
- Activity [29]: Non-toxic
